Experimental data as given in US9427428B2, “Benzimidazole-imidazole derivatives” (Janssen Sciences Ireland UC, priority 2009, dated 2016).

What was measured:
[1] = system: HCV genotype 1b replicon NS5A L31M; test: Transient HCV 1b replicon, NS5A mutant L31M; assay type: cell-based; details: Hepatitis C virus, read-out: EC50 L31M
Text: (§1) In a transient set-up, a Huh-7 lunet hepatoma cell line was transiently transfected with an autonomously replicating RNA encoding a bi-cistronic expression construct. This construct comprises a firefly luciferase reporter gene preceding the NS3-NS5B subgenomic region of HCV (genotype 1a H77 or 1b Con1). Translation of the HCV subgenomic region is mediated by an internal ribosome entry site of encephalomyocarditis virus. The construct is furthermore flanked by 5′ and 3′ untranslated regions of HCV (genotype 1a H77 or 1b Con 1, respectively), which allow for replication of the RNA.
(§2) In addition to the wild-type constructs, site-directed mutations were introduced into the transient HCV genotype 1b replicon in the gene encoding for the non-structural protein 5A (NS5A). More precisely, amino acid residues 28, 30, 31 and 93 in NS5A were independently altered.
(§3) Cells were plated in 384 well plates in the presence of test and control compounds, which were added in various concentrations. Following an incubation of two days, replication of the HCV subgenomic replicon RNA was measured by assaying luciferase activity (using standard luciferase assay substrates and reagents and a Perkin Elmer ViewLux™ ultraHTS microplate imager). HCV subgenomic replicon containing cells in the control cultures have high luciferase expression in the absence of any inhibitor. The inhibitory activity of the compound was monitored, enabling a dose-response curve for each test compound. EC50 values were then calculated, which represent the amount of compound required to decrease the level of detected luciferase activity by 50%, or more specifically, to reduce the ability of the genetically linked HCV subgenomic RNA to replicate.

[2] = system: HCV genotype 1b replicon NS5A R30H; test: Transient HCV 1b replicon, NS5A mutant R30H; assay type: cell-based; details: Hepatitis C virus, read-out: EC50 R30H
Text: as §1, §2, §3

[3] = system: HCV genotype 1b replicon NS5A Y93H; test: Transient HCV 1b replicon, NS5A mutant Y93H; assay type: cell-based; details: Hepatitis C virus, read-out: EC50 Y93H
Text: as §1, §2, §3

[4] = system: HCV genotype 1a H77 replicon (Huh-7 lunet cells); test: HCV replicon assay, transient transfection, genotype 1a; assay type: cell-based; details: Hepatitis C virus, 48 h, genotype 1a H77, two days incubation, luciferase
Text: as §1, §3
(§4) Where a compound of formula (I) was tested more than once in the transient replicon assay, the average of all test results is given in Table 3.

[5] = Counterscreen MT4-LTR-Luc; assay type: cell-based; details: human
Text: (§5) Counterscreen cell lines included a Huh-7 hepatoma cell line containing a human cytomegalovirus major immediate-early promoter-Luc construct (Huh7-CMV-Luc) and an MT4 T-cell line containing a long terminal repeat-Luc reporter (MT4-LTR-Luc).

[6] = system: HCV genotype 1b replicon NS5A L28T; test: Transient HCV 1b replicon, NS5A mutant L28T; assay type: cell-based; details: Hepatitis C virus, read-out: EC50 L28T
Text: as §1, §2, §3

[7] = Counterscreen Huh7-CMV-Luc; assay type: cell-based; details: human
Text: as §5

[8] = system: HCV genotype 1b replicon NS5A Y93C; test: Transient HCV 1b replicon, NS5A mutant Y93C; assay type: cell-based; details: Hepatitis C virus, read-out: EC50 Y93C
Text: as §1, §2, §3

[9] = system: HCV genotype 1b replicon NS5A L31V; test: Transient HCV 1b replicon, NS5A mutant L31V; assay type: cell-based; details: Hepatitis C virus, read-out: EC50 L31V
Text: as §1, §2, §3

[10] = system: HCV genotype 1b Con1 replicon (Huh-7 lunet cells); test: HCV replicon assay, transient transfection, genotype 1b; assay type: cell-based; details: Hepatitis C virus, 48 h, genotype 1b Con1, two days incubation, luciferase
Text: as §1, §3, §4

[11] = Pharmacokinetic analysis after single oral administration, liver concentration; assay type: in vivo; details: male Sprague-Dawley rats, 10 mg/kg oral, solution in PEG400
Protocol: Compounds were dosed orally as a solution in PEG400 to male Sprague-Dawley rats at a dose level of 10 mg/kg. At serial time points, after dosing, the animals were sacrificed and liver samples collected. All samples were analyzed using a qualified research LC-MS/MS method to determine the concentration of the tested compounds in liver. Non-compartmental analysis using the lin/log trapezoidal rule was performed using WinNonlin™ Professional (Version 5.2.1).

[12] = system: HCV genotype 1b replicon NS5A L31F; test: Transient HCV 1b replicon, NS5A mutant L31F; assay type: cell-based; details: Hepatitis C virus, read-out: EC50 L31F
Text: as §1, §2, §3

[13] = system: HCV type 1b replicon (Huh-7 luc/neo cells); test: HCV replicon assay, stable transfection (Huh-Luc, luciferase); assay type: cell-based; details: Hepatitis C virus, Huh-7, 72 h, three days incubation, average of all tests
Text: The compounds of formula (I) were examined for inhibitory activity in the HCV replicon. This cellular assay is based on a bicistronic expression construct, as described by Lohmann et al. (Science (1999) 285: 110-113; Journal of Virology (2003) 77: 3007-3019) with modifications described by Krieger et al. (Journal of Virology (2001) 75: 4614-4624), and Lohmann et al. (Journal of Virology (2003) 77: 3007-3019) for genotype 1b and by Yi et al. (Journal of Virology (2004) 78: 7904-7915) for genotype 1a, in a multi-target screening strategy.
The method was as follows. The assay utilized the stably transfected cell line Huh-7 luc/neo (hereafter referred to as Huh-Luc). This cell line harbors an RNA encoding a bicistronic expression construct comprising the wild type NS3-NS5B regions of HCV type 1b translated from an Internal Ribosome Entry Site (IRES) from encephalomyocarditis virus (EMCV), preceded by a reporter portion (FfL-luciferase), and a selectable marker portion (neoR, neomycine phosphotransferase). The construct is flanked by 5′ and 3′ NTRs (non-translated regions) from HCV type 1b. Continued culture of the replicon cells in the presence of G418 (neoR) is dependent on the replication of the HCV RNA. The stably transfected replicon cells that replicate HCV RNA autonomously and to high levels, encoding inter alia luciferase, were used for screening the antiviral compounds.
The replicon cells were plated in 384 well plates in the presence of the test and control compounds which were added in various concentrations. Following an incubation of three days, HCV replication was measured by assaying luciferase activity (using standard luciferase assay substrates and reagents and a Perkin Elmer ViewLux™ ultraHTS microplate imager). Replicon cells in the control cultures have high luciferase expression in the absence of any inhibitor. The inhibitory activity of the compound was monitored on the Huh-Luc cells, enabling a dose-response curve for each test compound. EC50 values were then calculated, which represent the amount of compound required to decrease the level of detected luciferase activity by 50%, or more specifically, to reduce the ability of the genetically linked HCV replicon RNA to replicate.
Where a compound of formula (I) was tested more than once in the replicon assay, the average of all test results is given in this Table 2.

Row | SMILES | EC50 [1] [nM] | EC50 [2] [nM] | EC50 [3] [nM] | EC50 [4] [nM] | CC50 [5] [nM] | EC50 [6] [nM] | CC50 [7] [nM] | EC50 [8] [nM] | EC50 [9] [nM] | EC50 [10] [nM] | Liver AUC [11] [ng·h/g] | EC50 [12] [nM] | EC50 [13] [nM]
1 | CC[C@H](C)[C@H](NC(=O)OC)C(=O)N1CCC[C@H]1c1ncc(-c2ccc3cc(-c4ccc5nc([C@@H]6CCCN6C(=O)[C@@H](NC(=O)OC)[C@@H](C)CC)[nH]c5c4)ccc3c2)[nH]1 [Compound 8] | 0.258 | 0.116 | 0.587 | 0.204 | > 984 | 0.206 | > 984 | < 0.013 | 0.311 | 0.005 | 50655 | 0.016 | 0.003
2 | COC(=O)N[C@H](C(=O)N1CCC[C@H]1c1ncc(-c2ccc3cc(-c4ccc5nc([C@@H]6CCCN6C(=O)[C@@H](NC(=O)OC)[C@@H](C)OC)[nH]c5c4)ccc3c2)[nH]1)C(C)C [Compound 9] | 0.072 | 0.045 | 0.042 | 0.03 | > 984 | 0.081 | > 984 | < 0.013 | 0.086 | 0.007 | 6202 | < 0.017 | 0.007
3 | COC(=O)N[C@H](C(=O)N1CCC[C@H]1c1nc2ccc(-c3ccc4cc(-c5cnc([C@@H]6CCCN6C(=O)[C@@H](NC(=O)OC)[C@@H](C)OC)[nH]5)ccc4c3)cc2[nH]1)C(C)C [Compound 11] | 0.087 | 0.05 | 0.167 | 0.048 | > 984 | 0.117 | > 984 | < 0.013 | 0.141 | 0.012 | 7928 | 0.021 | 0.006
4 | CC[C@H](C)[C@H](NC(=O)OC)C(=O)N1CCC[C@H]1c1nc2ccc(-c3ccc4cc(-c5cnc([C@@H]6CCCN6C(=O)[C@@H](NC(=O)OC)C(C)C)[nH]5)ccc4c3)cc2[nH]1 [Compound 13] | 0.053 | 0.027 | 0.215 | 0.051 | > 984 | 0.109 | > 984 | < 0.013 | 0.141 | 0.002 | 51330 | < 0.013 | 0.002
5 | CC[C@H](C)[C@H](NC(=O)OC)C(=O)N1CCC[C@H]1c1ncc(-c2ccc3cc(-c4ccc5[nH]c([C@@H]6CCCN6C(=O)[C@@H](NC(=O)OC)C(C)C)nc5c4)ccc3c2)[nH]1 [Compound 16] | 0.093 | 0.07 | 0.343 | 0.098 | > 984 | 0.151 | > 984 | < 0.013 | 0.411 | 0.003 | 12630 | 0.017 | 0.003
6 | CC[C@H](C)[C@H](NC(=O)OC)C(=O)N1CCC[C@H]1c1ncc(-c2ccc3cc(-c4ccc5[nH]c([C@@H]6CCCN6C(=O)[C@@H](NC(=O)OC)[C@@H](C)OC)nc5c4)ccc3c2)[nH]1 [Compound 17] | 0.025 | 0.036 | 0.034 | 0.049 | 9300 | 0.037 | 11100 | 0.003 | 0.037 | 0.005 | 4213 | 0.005 | 0.005
7 | CC[C@H](C)[C@H](NC(=O)OC)C(=O)N1CCC[C@H]1c1nc2cc(-c3ccc4cc(-c5cnc([C@@H]6CCCN6C(=O)[C@@H](NC(=O)OC)[C@@H](C)OC)[nH]5)ccc4c3)ccc2[nH]1 [Compound 18] | 0.054 | 0.039 | 0.08 | 0.018 | 9680 | 0.041 | 8680 | 0.003 | 0.052 | 0.004 | 14091 | 0.005 | 0.003
